Measured values taken from BindingDB's records for patent US11691963 (Ajax Therapeutics, 2023).

What follows are molecules tested against Tyrosine-protein kinase JAK2 [Y1007F,Y1008F] (Homo sapiens, UniProt O60674, Y1007F/Y1008F) (assay: JAK2 Binding Assay).
Description: Streptavidin-coated magnetic beads were treated with biotinylated small molecule ligands for 30 minutes at room temperature to generate affinity resins for kinase assays. The liganded beads were blocked with excess biotin and washed with blocking buffer (SeaBlock (Pierce), 1% BSA, 0.05% Tween 20, 1 mmol/L DTT) to remove unbound ligand and to reduce nonspecific phage binding. Binding reactions were assembled by combining kinases, liganded affinity beads, and test compounds in 1× binding buffer (1×PBS, 0.05% Tween 20, 0.1% BSA, 1 mmol/L DTT). Test compound was prepared as 111× stocks in 100% DMSO and directly diluted into the assay wells. All reactions were performed in polypropylene 384-well plates in a final volume of 0.02 mL. The assay plates were incubated at room temperature with shaking for 1 hour and the affinity beads were washed with wash buffer (1×PBS, 0.05% Tween 20). The beads were then re-suspended in elution buffer (1×PBS, 0.05% Tween 20, 0.5 μmol/L non-biotinylated affinity ligand) and incubated at room temperature with shaking for 30 minutes. The kinase concentration in the eluate was measured by qPCR.

Tyrosine-protein kinase JAK2 [Y1007F,Y1008F], sequence (O60674 whole entry Y1007F/Y1008F): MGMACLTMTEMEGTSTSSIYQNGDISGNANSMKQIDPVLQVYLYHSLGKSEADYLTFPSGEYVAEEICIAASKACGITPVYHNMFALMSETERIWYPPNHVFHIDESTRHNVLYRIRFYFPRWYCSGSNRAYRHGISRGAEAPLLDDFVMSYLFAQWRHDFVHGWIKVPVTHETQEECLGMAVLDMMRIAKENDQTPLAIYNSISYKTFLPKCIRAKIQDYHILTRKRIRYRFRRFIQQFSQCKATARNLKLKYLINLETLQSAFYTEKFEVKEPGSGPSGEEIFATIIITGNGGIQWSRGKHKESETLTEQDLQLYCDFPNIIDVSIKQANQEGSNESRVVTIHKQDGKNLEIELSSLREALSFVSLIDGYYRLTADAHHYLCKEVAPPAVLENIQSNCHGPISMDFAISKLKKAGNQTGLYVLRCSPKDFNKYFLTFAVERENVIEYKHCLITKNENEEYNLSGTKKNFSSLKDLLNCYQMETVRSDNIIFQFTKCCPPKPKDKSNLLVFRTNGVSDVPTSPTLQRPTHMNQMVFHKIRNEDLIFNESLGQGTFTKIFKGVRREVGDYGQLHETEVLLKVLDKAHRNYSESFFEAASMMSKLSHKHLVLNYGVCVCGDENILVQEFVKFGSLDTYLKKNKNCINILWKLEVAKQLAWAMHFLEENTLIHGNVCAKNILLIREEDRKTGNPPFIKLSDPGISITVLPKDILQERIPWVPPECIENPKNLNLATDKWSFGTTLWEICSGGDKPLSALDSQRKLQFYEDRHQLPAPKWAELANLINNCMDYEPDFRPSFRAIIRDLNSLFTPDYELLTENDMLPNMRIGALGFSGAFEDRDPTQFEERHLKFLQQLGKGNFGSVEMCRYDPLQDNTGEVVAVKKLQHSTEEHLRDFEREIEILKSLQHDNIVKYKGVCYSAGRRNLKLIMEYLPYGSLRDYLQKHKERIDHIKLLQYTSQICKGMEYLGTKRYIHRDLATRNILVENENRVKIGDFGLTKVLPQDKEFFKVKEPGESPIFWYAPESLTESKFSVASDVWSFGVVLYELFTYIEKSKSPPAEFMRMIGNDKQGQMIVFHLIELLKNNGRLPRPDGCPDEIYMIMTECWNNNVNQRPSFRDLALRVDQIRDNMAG

Kd, < 10 nM:
CC(=O)Nc1cc(Oc2ccc3nc(Nc4cc(C(C)(C)C)n(C[C@H]5C[C@@H](O)C5)n4)n(C)c3c2)ccn1 [US11691963, Example I-28]
CC(=O)Nc1cc(Oc2ccc3nc(Nc4cc5n(n4)CCCC5(C)C)n(C)c3n2)ccn1 [US11691963, Example I-42]
CC(=O)Nc1cc(Oc2cnc3nc(Nc4cc(C(C)(C)C)n([C@H]5C[C@@H](O)C5)n4)n(C)c3c2)ccn1 [US11691963, Example I-116]
CC(=O)Nc1cc(Oc2cnc3nc(Nc4cc(C(C)(C)C)n([C@H]5C[C@H](O)C5)n4)n(C)c3c2)ccn1 [US11691963, Example I-115]
